This note sets out measurements from ChEMBL document CHEMBL3407489, “Bis-aryl urea derivatives as potent and selective LIM kinase (Limk) inhibitors” (J Med Chem, 2015).

The nature of data set [1]: Oral bioavailability in Sprague-Dawley rat at 2 mg/kg by LC-MS/MS and HPLC method. Format: ADME, organism-based. The conditions noted are these: in vivo.
Data set [2] is described as follows: Volume of distribution in Sprague-Dawley rat at 1 mg/kg, iv by LC-MS/MS and HPLC method. The conditions noted are these: in vivo. Format: ADME, organism-based. Set-up: dose 1 mg/kg, route intravenous.
Data set [3] concerns the target T1, LIM domain kinase 1 (Homo sapiens, UniProt P53667).
Description: Inhibition of human Limk1 using cofilin substrate, ATP and [gamma33P]ATP
The target of data set [4] is LIM domain kinase 1 (Rattus norvegicus, UniProt P53669). As to the kind of experiment: Inhibition of Limk1 in rat A7r5 cells assessed as reduction in cofilin phosphorylation by Western blot method. Format: cell-based.
Data set [5] concerns Liver microsome. Nature of the data set: Half life in human liver microsomes. Format: ADME.
The subject of data set [6] is Liver microsome. As to the kind of experiment: Half life in rat liver microsomes. The class given is ADME. (In general: Liver microsomes are vesicles of endoplasmic reticulum, rich in cytochrome P450 enzymes.)
Data set [7] concerns the target Rho-associated protein kinase 2 (Homo sapiens, UniProt O75116).
The subject of data set [8] is PC-3. Nature of the data set: cells. To be noted: Homo sapiens, PC-3, 24 h, read-out: INH.
Description: Inhibition of cell migration of human PC3 cells at 0.1 uM after 24 hrs wound healing assay
For the next data set, the target named is CYP2D6 (Homo sapiens, UniProt P10635). Nature of the data set: Inhibition of CYP2D6 (unknown origin) assessed as reduction in bufuralol hydroxylation to […] at 10 uM. The class given is ADME. To be noted: probe bufuralol.
Data set [9] concerns PC-3. As to the kind of experiment: cells. To be noted: Homo sapiens, PC-3, 24 h, read-out: INH. The source holds these as a separate data set.
Description: Inhibition of cell migration of human PC3 cells at 1 uM after 24 hrs wound healing assay
The subject of data set [10] is PC-3. Nature of the data set: cells. The conditions noted are these: Homo sapiens, PC-3, 24 h, read-out: INH. The source holds these as a separate data set.
Description: Inhibition of cell migration of human PC3 cells at 10 uM after 24 hrs wound healing assay
The next data set deals with T2, CYP1A2 (Homo sapiens, UniProt P05177).
T2 sequence (P05177 whole entry): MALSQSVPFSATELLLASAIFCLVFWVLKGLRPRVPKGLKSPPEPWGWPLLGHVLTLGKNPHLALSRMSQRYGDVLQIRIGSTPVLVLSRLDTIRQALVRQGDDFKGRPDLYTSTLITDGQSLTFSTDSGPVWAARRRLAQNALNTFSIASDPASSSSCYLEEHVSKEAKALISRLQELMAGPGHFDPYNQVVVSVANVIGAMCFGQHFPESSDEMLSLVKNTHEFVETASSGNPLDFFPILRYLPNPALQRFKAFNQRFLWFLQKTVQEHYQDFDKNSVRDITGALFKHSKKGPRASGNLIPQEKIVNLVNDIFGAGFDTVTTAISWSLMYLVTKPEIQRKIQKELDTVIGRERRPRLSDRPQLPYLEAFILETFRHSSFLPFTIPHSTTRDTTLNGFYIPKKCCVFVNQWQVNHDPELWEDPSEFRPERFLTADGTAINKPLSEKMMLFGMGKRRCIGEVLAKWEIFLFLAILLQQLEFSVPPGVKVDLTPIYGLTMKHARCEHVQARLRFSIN
Nature of the data set: Inhibition of CYP1A2 (unknown origin) assessed as reduction in phenaceten demethylation to acetaminophen at 10 uM. The class given is ADME.

Data set [11] has as its system PC-3. As to the kind of experiment: cells. The conditions noted are these: Homo sapiens, PC-3, 48 h, read-out: INH.
Description: Inhibition of cell invasion of human PC3 cells at 1 uM after 48 hrs by hematoxylin staining based transwell chamber assay
The next data set concerns the target CYP3A4 (Homo sapiens, UniProt P08684). As to the kind of experiment: Inhibition of CYP3A4 (unknown origin) assessed as reduction in midazolam hydroxylation to 1'-Hydroxymidazolam at 10 uM. The class given is ADME. The conditions noted are these: probe midazolam.
A further data set deals with CYP2C9 (Homo sapiens, UniProt P11712). As to the kind of experiment: Inhibition of CYP2C9 (unknown origin) assessed as reduction in tolbutamide hydroxylation to hydrocytolbutamide at 10 uM. The class given is ADME.
The target in data set [12] is T1, LIM domain kinase 1. As to the kind of experiment: Inhibition of Limk1 (unknown origin).

Each structure is given as a SMILES string.

Sequence of CYP2D6 (P10635 whole entry): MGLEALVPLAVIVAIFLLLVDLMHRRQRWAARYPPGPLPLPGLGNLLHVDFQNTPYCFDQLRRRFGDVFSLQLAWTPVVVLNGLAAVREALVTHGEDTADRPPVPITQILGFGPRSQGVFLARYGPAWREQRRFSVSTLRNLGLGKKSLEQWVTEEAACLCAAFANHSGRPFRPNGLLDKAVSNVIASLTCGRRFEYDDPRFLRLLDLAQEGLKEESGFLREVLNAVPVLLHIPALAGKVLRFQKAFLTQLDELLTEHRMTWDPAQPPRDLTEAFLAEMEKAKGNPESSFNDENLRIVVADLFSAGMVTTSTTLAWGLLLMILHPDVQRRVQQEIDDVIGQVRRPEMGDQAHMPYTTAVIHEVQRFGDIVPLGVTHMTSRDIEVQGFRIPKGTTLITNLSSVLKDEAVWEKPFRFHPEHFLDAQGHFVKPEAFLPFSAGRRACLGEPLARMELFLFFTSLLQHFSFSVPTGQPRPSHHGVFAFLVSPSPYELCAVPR
Sequence of CYP3A4 (P08684 whole entry): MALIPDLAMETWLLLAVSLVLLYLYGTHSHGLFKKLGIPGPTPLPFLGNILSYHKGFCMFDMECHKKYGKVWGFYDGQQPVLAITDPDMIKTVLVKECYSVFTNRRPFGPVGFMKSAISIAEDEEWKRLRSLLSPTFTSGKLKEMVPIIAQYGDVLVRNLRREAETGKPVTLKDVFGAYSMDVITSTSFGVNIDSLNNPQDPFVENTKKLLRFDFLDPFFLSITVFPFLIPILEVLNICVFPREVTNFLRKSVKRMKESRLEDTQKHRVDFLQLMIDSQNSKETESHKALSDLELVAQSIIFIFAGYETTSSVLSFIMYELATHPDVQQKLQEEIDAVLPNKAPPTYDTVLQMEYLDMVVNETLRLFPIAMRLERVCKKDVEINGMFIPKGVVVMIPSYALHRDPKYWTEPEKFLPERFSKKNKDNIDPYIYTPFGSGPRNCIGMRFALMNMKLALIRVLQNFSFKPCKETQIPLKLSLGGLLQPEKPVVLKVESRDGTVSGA
Sequence of CYP2C9 (P11712 whole entry, the tested form may be a part): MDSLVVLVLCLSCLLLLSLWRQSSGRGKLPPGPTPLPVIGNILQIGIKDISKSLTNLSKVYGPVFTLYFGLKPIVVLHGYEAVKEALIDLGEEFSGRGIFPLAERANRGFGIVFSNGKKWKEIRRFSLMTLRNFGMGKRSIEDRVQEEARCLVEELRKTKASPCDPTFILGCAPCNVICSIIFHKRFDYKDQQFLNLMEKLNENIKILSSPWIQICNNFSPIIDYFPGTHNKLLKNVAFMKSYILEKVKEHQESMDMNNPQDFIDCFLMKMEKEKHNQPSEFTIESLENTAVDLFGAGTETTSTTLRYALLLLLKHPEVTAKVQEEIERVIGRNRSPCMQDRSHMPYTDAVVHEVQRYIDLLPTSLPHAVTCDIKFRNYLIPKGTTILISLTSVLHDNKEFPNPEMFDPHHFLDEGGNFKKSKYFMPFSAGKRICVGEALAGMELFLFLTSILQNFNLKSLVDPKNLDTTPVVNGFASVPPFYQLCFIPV
T1 sequence (P53667 whole entry, the tested form may be a part): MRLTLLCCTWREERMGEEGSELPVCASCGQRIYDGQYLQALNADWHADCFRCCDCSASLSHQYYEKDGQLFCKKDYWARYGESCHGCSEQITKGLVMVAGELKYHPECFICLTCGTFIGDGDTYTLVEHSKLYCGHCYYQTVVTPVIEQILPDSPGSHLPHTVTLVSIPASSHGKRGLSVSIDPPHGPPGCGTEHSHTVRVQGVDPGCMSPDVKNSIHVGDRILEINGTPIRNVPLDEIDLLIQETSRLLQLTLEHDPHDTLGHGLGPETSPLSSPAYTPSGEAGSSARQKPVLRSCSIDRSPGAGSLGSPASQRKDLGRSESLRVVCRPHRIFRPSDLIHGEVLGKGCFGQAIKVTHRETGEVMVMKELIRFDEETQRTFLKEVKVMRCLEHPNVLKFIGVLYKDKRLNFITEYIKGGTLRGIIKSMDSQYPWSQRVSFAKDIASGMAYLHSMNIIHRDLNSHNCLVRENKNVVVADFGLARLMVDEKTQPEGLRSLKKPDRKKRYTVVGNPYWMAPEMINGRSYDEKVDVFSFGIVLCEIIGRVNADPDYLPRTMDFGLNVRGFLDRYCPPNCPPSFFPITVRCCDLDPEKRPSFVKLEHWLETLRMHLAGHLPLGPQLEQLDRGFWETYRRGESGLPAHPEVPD
Sequence of LIM domain kinase 1 (Rattus norvegicus, UniProt P53669) (P53669 whole entry, the tested form may be a part): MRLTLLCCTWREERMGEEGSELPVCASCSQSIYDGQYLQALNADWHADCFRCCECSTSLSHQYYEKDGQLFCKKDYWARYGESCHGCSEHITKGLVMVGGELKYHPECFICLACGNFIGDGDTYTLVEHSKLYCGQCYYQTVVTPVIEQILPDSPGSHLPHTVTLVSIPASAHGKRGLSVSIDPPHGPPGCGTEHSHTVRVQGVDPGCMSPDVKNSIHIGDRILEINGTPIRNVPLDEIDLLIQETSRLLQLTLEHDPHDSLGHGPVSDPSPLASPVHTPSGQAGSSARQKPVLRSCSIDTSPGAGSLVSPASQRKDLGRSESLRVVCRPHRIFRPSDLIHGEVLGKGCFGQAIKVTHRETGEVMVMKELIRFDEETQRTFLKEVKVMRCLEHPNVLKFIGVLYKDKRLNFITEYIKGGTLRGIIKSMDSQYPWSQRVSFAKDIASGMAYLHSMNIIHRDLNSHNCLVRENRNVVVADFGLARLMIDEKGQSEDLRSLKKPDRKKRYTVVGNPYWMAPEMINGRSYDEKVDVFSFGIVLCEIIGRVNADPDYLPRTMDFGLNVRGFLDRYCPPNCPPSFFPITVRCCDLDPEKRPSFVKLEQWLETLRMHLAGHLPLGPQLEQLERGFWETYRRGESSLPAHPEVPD
Sequence of Rho-associated protein kinase 2 (O75116 whole entry): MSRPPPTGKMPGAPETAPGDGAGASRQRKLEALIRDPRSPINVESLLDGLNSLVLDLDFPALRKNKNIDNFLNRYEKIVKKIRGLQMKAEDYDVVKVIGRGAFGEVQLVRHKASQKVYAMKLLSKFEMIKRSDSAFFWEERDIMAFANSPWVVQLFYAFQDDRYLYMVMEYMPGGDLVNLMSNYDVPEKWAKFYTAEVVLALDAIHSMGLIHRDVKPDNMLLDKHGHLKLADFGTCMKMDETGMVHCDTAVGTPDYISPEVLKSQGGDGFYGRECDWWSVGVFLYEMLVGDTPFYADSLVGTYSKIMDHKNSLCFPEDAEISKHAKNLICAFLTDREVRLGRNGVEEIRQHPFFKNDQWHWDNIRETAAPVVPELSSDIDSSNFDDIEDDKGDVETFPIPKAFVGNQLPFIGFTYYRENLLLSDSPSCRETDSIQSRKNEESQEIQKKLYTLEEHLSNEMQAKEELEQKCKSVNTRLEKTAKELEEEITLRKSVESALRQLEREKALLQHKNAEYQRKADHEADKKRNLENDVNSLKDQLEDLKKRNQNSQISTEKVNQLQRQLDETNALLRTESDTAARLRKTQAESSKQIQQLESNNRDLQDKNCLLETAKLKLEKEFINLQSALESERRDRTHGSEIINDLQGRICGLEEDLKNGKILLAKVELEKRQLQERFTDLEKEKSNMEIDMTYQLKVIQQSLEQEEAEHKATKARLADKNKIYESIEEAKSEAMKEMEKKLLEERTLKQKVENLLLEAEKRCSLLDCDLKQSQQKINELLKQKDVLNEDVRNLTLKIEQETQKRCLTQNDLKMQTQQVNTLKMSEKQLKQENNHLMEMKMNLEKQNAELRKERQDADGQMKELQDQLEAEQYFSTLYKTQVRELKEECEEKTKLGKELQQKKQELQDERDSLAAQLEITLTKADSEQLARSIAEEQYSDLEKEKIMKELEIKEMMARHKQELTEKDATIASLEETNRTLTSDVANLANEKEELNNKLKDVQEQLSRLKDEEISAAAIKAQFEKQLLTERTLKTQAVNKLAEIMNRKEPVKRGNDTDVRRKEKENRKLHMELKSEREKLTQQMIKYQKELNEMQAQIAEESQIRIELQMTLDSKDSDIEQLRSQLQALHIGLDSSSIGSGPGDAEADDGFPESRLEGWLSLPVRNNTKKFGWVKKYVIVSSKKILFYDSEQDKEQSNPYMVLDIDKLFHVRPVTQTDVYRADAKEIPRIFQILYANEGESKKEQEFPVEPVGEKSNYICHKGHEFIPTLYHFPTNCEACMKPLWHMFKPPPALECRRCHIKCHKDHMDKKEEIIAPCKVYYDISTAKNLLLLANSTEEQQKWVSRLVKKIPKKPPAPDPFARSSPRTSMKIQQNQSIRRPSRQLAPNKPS

In [1], `Cc1c[nH]c2ncnc(-c3ccc(NC(=O)Nc4cccc(C(=O)NC(C)C)c4)cc3)c12` showed a bioavailability of 0%. In data set [2], the Vd stood at 0.3 L/kg.
At LIM domain kinase 1 [3], `CC(C)NC(=O)c1cccc(NC(=O)Nc2ccc(-c3ccnc4[nH]ccc34)cc2)c1` gave an IC50 of over 10 µM.
Regarding `Cc1c[nH]c2ncnc(-c3ccc(NC(=O)Nc4cccc(C(=O)NC(C)C)c4)c(F)c3)c12`, the bioavailability in data set [1] stood at 0%. The IC50 on LIM domain kinase 1 [4] was determined as 4 µM. The same compound came in with a Vd in data set [2] of 0.7 L/kg. Further, the t1/2 in the data set with Liver microsome [5] was 27 min; in the data set with Liver microsome [6] it was 55 min.
Take `CC(C)NC(=O)c1cccc(NC(=O)Nc2ccc(-c3ncnc4[nH]cnc34)cc2)c1`: the values for the IC50 (on LIM domain kinase 1 [3]; in data set [7]) were 1.53 µM and 5.57 µM, respectively.
With `Cc1[nH]c2ncnc(-c3ccc(NC(=O)Nc4cccc(C(=O)NC(C)C)c4)cc3)c2c1C`, the t1/2 in the data set with Liver microsome [5] is reported as 47 min; with Liver microsome [6], over 120 min.
For `Cc1c[nH]c2ncnc(-c3ccc(NC(=O)Nc4ccccc4)cc3)c12`, in data set [1], the bioavailability came to 16%. Further, the Vd in [2] came out at 0.5 L/kg.
Compound `Cc1c[nH]c2ncnc(-c3ccc(NC(=O)N(CCO)c4ccccc4)cc3)c12` returned a bioavailability in [1] of 36%. Moreover, the inhibition at 0.1 µM in the data set with PC-3 [8] was determined as 16.5%. Further, the results for the inhibition at 10 µM on CYP2D6, in the data set with PC-3 [10] and on CYP1A2 were 5%, 77.5% and -16%, respectively. For the same compound, in data set [2], the Vd turned out to be 0.4 L/kg. Further, the inhibition at 1 µM in the data set on PC-3 [9] was 74%; in the data set on PC-3 [11] it was 76%. For the same compound, the t1/2 with Liver microsome [5] came to 87 min; in the data set with Liver microsome [6], 30 min.
Turning to `Cc1c[nH]c2ncnc(-c3ccc(NC(=O)N(CCO)c4ccc(F)cc4)cc3)c12`, the inhibition at 10 µM on CYP2D6 is 3%; on CYP1A2, -4%. Also, the results for the t1/2 in the data set with Liver microsome [5] and in the data set on Liver microsome [6] were 44 min and 52 min, respectively.
The compound `Cc1c[nH]c2ncnc(-c3ccc(NC(=O)N(CCO)c4ccccc4Cl)cc3)c12` gave a bioavailability in data set [1] of 21%. In the data set on PC-3 [8], the inhibition at 0.1 µM came out at 13%. Moreover, the inhibition at 10 µM at CYP2D6 is 1%; in the data set with PC-3 [10], 81%; on CYP1A2 it was -4%. Moreover, the IC50 on LIM domain kinase 1 [4] was 0.42 µM. The compound also returned a Vd in [2] of 0.7 L/kg. Further, the inhibition at 1 µM amounted to 76.1% in the data set with PC-3 [9] and 83% in the data set with PC-3 [11]. This compound also displayed a t1/2 in the data set with Liver microsome [6] of 38 min.
For the compound `Cc1c[nH]c2ncnc(-c3ccc(NC(=O)N(CCO)c4cccc(Cl)c4)cc3)c12`, the inhibition at 10 µM at CYP2D6 was 2%; at CYP1A2, -19%. For the same compound, the IC50 on LIM domain kinase 1 [4] amounted to 0.372 µM. Further, the t1/2 in the data set with Liver microsome [5] is listed as 22 min; with Liver microsome [6] it was 20 min.
For `Cc1c[nH]c2ncnc(-c3ccc(NC(=O)N(CCO)c4ccc(Cl)cc4)cc3)c12`, in data set [1], the bioavailability was 20%. Also, the figures for the inhibition at 10 µM at CYP2D6 and at CYP1A2 were 4% and -12%, respectively. Also, the IC50 on LIM domain kinase 1 [4] was 0.118 µM. The compound further registered a Vd in [2] of 0.5 L/kg. The results for the t1/2 in the data set with Liver microsome [5] and with Liver microsome [6] were over 120 min and 73 min, respectively.
For the compound `Cc1ccc(N(CCO)C(=O)Nc2ccc(-c3ncnc4[nH]cc(C)c34)cc2)cc1`, in data set [1], the bioavailability was found to be 24%. Further, the inhibition at 10 µM is 5% at CYP3A4, -4% on CYP2D6 and -5% on CYP1A2. In data set [2], this compound yielded a Vd of 0.3 L/kg. Also, the t1/2 in the data set with Liver microsome [5] is 56 min; in the data set with Liver microsome [6] it was 39 min.
`COc1ccccc1N(CCO)C(=O)Nc1ccc(-c2ncnc3[nH]cc(C)c23)cc1`: the IC50 in data set [7] is over 10 µM.
As for `COc1cccc(N(CCO)C(=O)Nc2ccc(-c3ncnc4[nH]cc(C)c34)cc2)c1`, the inhibition at 10 µM on CYP2D6 and at CYP1A2 was 3% in each case. Moreover, the t1/2 with Liver microsome [5] was 38 min; with Liver microsome [6] it was 21 min.
On to `COc1ccc(N(CCO)C(=O)Nc2ccc(-c3ncnc4[nH]cc(C)c34)cc2)cc1`, for which the inhibition at 10 µM on CYP2C9 was 8%; at CYP3A4, 2%; at CYP2D6 it was -4%; on CYP1A2, -8%. Moreover, the bioavailability in [1] turned out to be 24%. Also, the Vd in [2] is 0.3 L/kg. Besides, the t1/2 in the data set with Liver microsome [5] came to 56 min; in the data set on Liver microsome [6], 40 min.
In data set [1], `COc1ccc(N(CCN)C(=O)Nc2ccc(-c3ncnc4[nH]cc(C)c34)cc2)cc1` gave a bioavailability of 0%. In [2], this compound displayed a Vd of 6 L/kg.
On to `Cc1c[nH]c2ncnc(-c3ccc(NC(=O)N(CCN)c4ccc(Cl)cc4)cc3)c12`, for which the bioavailability in data set [1] is 0%. In addition, the Vd in data set [2] came out at 4 L/kg.
`Cc1c[nH]c2ncnc(-c3ccc(NC(=O)N(CCN(C)C)c4ccc(Cl)cc4)cc3)c12` yielded a bioavailability in [1] of 0%. This compound also registered a Vd in [2] of 17.1 L/kg.
As to `Cc1[nH]c2ncnc(-c3ccc(NC(=O)N(CCO)c4ccc(Cl)cc4)c(F)c3)c2c1C`, the bioavailability in data set [1] turned out to be 29%. Moreover, the inhibition at 10 µM at CYP2D6 stood at 8%; at CYP1A2 it was 40%. The same compound returned a Vd in data set [2] of 0.5 L/kg. Moreover, the t1/2 was 99 min in the data set with Liver microsome [5] and 44 min in the data set with Liver microsome [6].
For the compound `Cc1[nH]c2ncnc(-c3ccc(NC(=O)N(CCN)c4ccc(Cl)cc4)c(F)c3)c2c1C`, the inhibition at 10 µM at CYP3A4 is -11%. Moreover, the t1/2 in the data set on Liver microsome [5] and with Liver microsome [6] was over 120 min each time.
Take `Cc1[nH]c2ncnc(-c3ccc(NC(=O)N(CCN(C)C)c4ccc(Cl)cc4)c(F)c3)c2c1C`: the inhibition at 10 µM on CYP2C9 was -23%; on CYP3A4, -9%; on CYP2D6, 20%. The IC50 at LIM domain kinase 1 [4] was 0.32 µM. The compound also had a Vd in [2] of 1.5 L/kg. For the same compound, the values for the t1/2 with Liver microsome [5] and with Liver microsome [6] were 19 min and 23 min, respectively.
On to `COCCN(C(=O)Nc1ccc(-c2ncnc3[nH]c(C)c(C)c23)cc1F)c1ccc(Cl)cc1`, for which the inhibition at 10 µM on CYP2C9 was found to be 50%. The IC50 at LIM domain kinase 1 [4] was 0.25 µM. In data set [2], the Vd stood at 1.2 L/kg. Further, the t1/2 in the data set on Liver microsome [6] was 13 min.
As for `COc1ccc(NC(=O)N(CCN2CCCC2)c2ccc(-c3ncnc4[nH]cc(C)c34)cc2)cc1`, at LIM domain kinase 1 [3], the IC50 was found to be 9.24 µM.
As to `COc1ccc(NC(=O)N(CCN2CCCCC2)c2ccc(-c3ncnc4[nH]cc(C)c34)cc2)cc1`, the IC50 at LIM domain kinase 1 [3] is over 10 µM.
In the case of `COc1c(C=O)c(O)cc2c1C(=O)c1ccccc1C2=O` [DAMNACANTHAL], 0.8 µM corresponded to half-maximal inhibition against LIM domain kinase 1 [12] (IC50).

By bioavailability is commonly meant dose-corrected exposure relative to a reference, in per cent. A high value points to much systemic uptake. The term Vd denotes a proportionality between amount in the body and measured concentration, not a real space. As usually defined, the IC50 is the point on the concentration scale where inhibition reaches its midpoint.
